{"source": "patent US20130079370A1", "about": "“Method for the Inhibition of Deubiquitinating Activity” (priority 2011, published 2013)", "key": {"HCT116 cells": {"tested_on": "HCT116 cells", "type": "cell-based", "conditions": "human", "excerpt": "These findings indicate that high molecular weight ubiquitin substrate complexes accumulating as a result of DUB inhibition can generate strong cytotoxicity that is insensitive to Bcl-2 over-expression. [table]"}, "[1]": {"tested_on": "isogenic clones of HCT116 colon cancer cells", "conditions": "literature refs (11, 12); cited from earlier work"}}, "data": [{"smiles": "CC(C)C[C@H](NC(=O)[C@H](Cc1ccccc1)NC(=O)c1cnccn1)B(O)O", "note": "[bortezomib, reference compound]", "values": [{"measurement": "Fold induction DNAJB1 (Hsp40B1)", "setting": "HCT116 cells", "value": 5, "unit": "fold"}, {"measurement": "Fold induction HSPA1B", "setting": "HCT116 cells", "value": 12, "unit": "fold"}, {"measurement": "Fold induction HSPA6 (Hsp70B′)", "setting": "HCT116 cells", "value": 60, "unit": "fold"}, {"measurement": "sensitivity of apoptosis induction to apoptosis regulators", "setting": "[1]", "value": "sensitive to the status of the p53 tumor suppressor and over-expression of the anti-apoptotic Bcl-2 oncoprotein"}]}]}
